Laboratory results as given in US20100204130A1, “USE OF HUMAN NEUROPEPTIDE AS A THERAPEUTIC AGENT” (priority 2007, published 2010).
Where a SMILES comes first, the peptide text is derived from it.

Tested on: drug-resistant Mycobacterium tuberculosis
Conditions: 5 micrograms per ml

Compound: CC(C)C[C@H](NC(=O)CNC(=O)[C@H](CCC(=O)O)NC(=O)CNC(=O)[C@H](C)N)C(=O)N[C@@H](CC(N)=O)C(=O)N[C@@H](CO)C(=O)N[C@@H](CCC(N)=O)C(=O)N[C@@H](Cc1ccccc1)C(=O)N[C@@H](Cc1c[nH]c2ccccc12)C(=O)N[C@@H](CO)C(=O)N[C@@H](CC(C)C)C(=O)N[C@@H](C)C(=O)N[C@@H](C)C(=O)N1CCC[C@H]1C(=O)N[C@@H](CCC(N)=O)C(=O)N[C@@H](CCCNC(=N)N)C(=O)N[C@@H](Cc1ccccc1)C(N)=O [Neuropeptide AF, Ala-Gly-Glu-Gly-Leu-Asn-Ser-Gln-Phe-Trp-Ser-Leu-Ala-Ala-Pro-Gln-Arg-Phe-NH2] (H-AGEGLNSQFWSLAAPQRF-NH2)
- % inhibition: 0.0%
